Marks after values point to notes of the source that are not given here.
Assays:
[1] = test system: Fibroblasts (mouse BALB/c-3T3); test: MIC on cell proliferation, 7 days in culture; assay type: cell-based
Experimental: (§1) The ability of arginine butyrate to induce differentiation has been evaluated and is measured by inhibition of growth, in some of the neoplastic cell types previously reported to be sensitive to (sodium) butyric acid, and found arginine butyrate to be as potent as butyric acid. We have also extended that work to additional cell types and found Arginine Butyrate to induce differentiation in these new cell types. Table 1 lists the cell types tested and the minimum inhibitory concentration (MIC) of sodium butyrate (NaB) and arginine butyrate (ArgB) on these cell lines. The MIC is the lowest dose that prevents all growth over the 7 days that the cells are maintained in culture, that is the minimum dose that prevents an increase in cell number. […] The […] of ArgB and NaB were equivalent on all cell lines tested.

[2] = test system: Fibroblasts (normal human); test: MIC on cell proliferation, 7 days in culture; assay type: cell-based; details: lowest dose that prevents all growth over 7 days
Experimental: as §1

[3] = test system: A549 (non-small cell cancer); test: Survival fraction after 72 hours exposure (MTT assay); assay type: cell-based, human
Experimental: (§2) Growth inhibition was measured by the MTT assay. […] PC-3=prostate cancer; A549=non-small cell cancer; OvCar=ovarian cancer; CaCo=colon cancer; MCF-7=breast cancer; and SW900=non-small cell lung cancer.

CaCo (colon cancer) = test: as above; assay type: cell-based, human
Experimental: as §2

EBV-TK MRNA = test: EBV-TK mRNA dose response experiments; assay type: cell-based; details: in vitro
Experimental: In vitro, peaks induction of EBV-TK plateaus at serum level of around 1 mM. […] Therefore, dose levels up to 2,000 mg/kg/day, were evaluated in an attempt to reach serum levels of 1 mM. Treatment cycles were of 4 week duration, with 3 weeks on treatment and one week off. Patients were given the standard dose of GCV throughout each 21 day course of arginine butyrate, starting, however, on day 0. Arginine butyrate was given by continuous IV infusion at 500 mg/kg/day for 2 days, at 1,000 mg/kg/day for 2 days, at 1,500 mg/kg/day for 2 days, and thereafter at 2,000 mg/kg/day, or as tolerated, for the rest of the 21 day course. Cycle 2 was begun on Day 29. Patients were given a complete tumor evaluation after every course with subsequent cycles emitted unless disease progressed.
In some experiments sodium was used instead of arginine to neutralize butyric acid. In dose response experiments, levels of EBV-TK MRNA plateaus at around 1 mM to 3 mM sodium butyrate, inducing levels essentially equivalent to those induced by 1 mM arginine butyrate. […] Similarly, levels of GCV above 30 μM were generally cytocidal to both to EBV+ and EBV− cell lines. Cell lines used were X50-7, a latent EBV+ B-cell lymphoma; Akata, a producer EBV+ Burkitt's lymphoma; HPB-ALL, a T-cell line; and Nalm-6, an EBV− B-cell line. […]

[4] = test system: Colonic Adenocarcinoma (HT 29); test: Differentiation and growth arrest of tumor cell line; assay type: cell-based, human
Experimental: The effects of arginine butyrate compounds on differentiation of several human tumor cell lines were evaluated by visual inspection and by histochemical and pathological staining:
Inhibition of DNA synthesis (as measured by ^3H-thymidine incorporation) occurred by 6 hours. Expression of the proto-oncogene c-myc was decreased by 2 hours.

[5] = test system: n-myc transcript in neuroblastoma cells; test: Expression of oncogene n-myc transcript; assay type: cell-based, human; details: 1 mM
[6] = test system: human malignant cell lines from breast, colon, lung, prostate, ovarian and lymphoid sources; test: Cytotoxicity as single agent, cell death at 72 hours; assay type: cell-based; details: all concentrations tested
[7] = test system: HIV p24 in co-cultures of human PBMC and Ci11; test: HIV p24 production, radio-immuno assay; assay type: cell-based; details: 72 hours post-cultivation; FIG. 13
Description: The effect of arginine butyrate on HIV p24 production could be easily studied in co-cultures of human PBMC and Ci11, an HIV infected cell line. […] Despite these encouraging results with a more direct assay than those published previously, the potential risks to HIV+ patients of treatment with arginine butyrate have not been evaluated as these patients were excluded from the protocol (FIG. 13). HIV p24 levels assessed by radio-immuno assay.

[8] = Table 4, 0.5 AB (0.5 mM), 72 hour

arginine butyrate
MIC [1]: >5,000 μM | MIC [2]: >5,000 μM | Survival Fraction ([3]; Table 3, 0.5 AB (0.5 mM), 72 hours): 0.92 | Survival Fraction [3, 8]: 0.76* | Survival Fraction ([3]; Table 4, .05 AB, 72 hour): 0.71* | Survival Fraction (CaCo (colon cancer); Table 3, 1.0 AB (1.0 mM), 72 hours): 0.60* | Survival Fraction (CaCo (colon cancer); [8]): 0.67* | Survival Fraction (CaCo (colon cancer); Table 4, .05 AB, 72 hour): 0.81* | level at which peak induction of EBV-TK plateaus (EBV-TK MRNA): around 1 mM | morphology and differentiation markers [4]: developed a mature brush border, and increased expression of sucrase/isomaltase | time by which expression of proto-oncogene c-myc was decreased [4]: ≤ 2 h | time by which inhibition of DNA synthesis (3H-thymidine incorporation) occurred [4]: ≤ 6 h | growth arrest ([4]; no further growth out to 25 days): absolute growth arrest by day 3-4 | expression of n-myc transcript [5]: decreased approximately Mold | concentrations at which cell death at 72 hours was seen [6]: 0.1 to 5.0 mM | HIV p24 production [7]: significant decrease in p24 production

From patent publication US6677302B2, “Compositions and methods for the treatment of viral disorders” (The Trustees of Boston University, priority 1996, dated 2004)
